The values that follow come from patent publication US6740637B1, “Chlorophyll and bacteriochlorophyll derivatives, their preparation and pharmaceutical compositions comprising them” (priority 1998, dated 2004).

In one series the test system is C57Bl mice. Briefly: Toxicity of serine conjugates in mice in the absence of irradiation. Type of series: in vivo, mouse. To be noted: injections of up to 40 mg/kg body weight, up to 14 days, no irradiation. As for the experimental part: (d) Toxicity of the Chl and Bchl-serine conjugates Chla-L-Ser-OMe and Bchla-L-Ser-OMe in C57Bl mice under normal housing conditions in the absence of irradiation was estimated by injection of the compound dissolved in 10% ethanol/PBS. Control mice were injected with the vehicle only. […] This dose of drug was thus far the highest used and LD50 vs. EC50 of treatment (margins of therapeutic index) have yet to be determined.

A further series concerns cell cultures. To be noted: cited from earlier work.
Series [1] has as its system Staphylococcus Aureus Cowan I. Type of series: cell-based. The protocol: Light source: All the phototoxicity assays were performed with a home-built Xenon lamp with vertical emission providing 140 mW/cm^2 at the target level, using glass or a Cr2K2O7 liquid filter transferring light at […].
Bacterial culture: Lyophilized Staphylococcus Aureus Cowan I, kindly provided by Prof. Z. Eshar, the Weizmann Institute, Israel were grown in liquid brain heart infusion (BHI) media for 18 hours at 37° C. with continuous shaking.
Phototoxicity experiments: The standard experimental design consisted of four discrete steps: (i) Pre-incubation: Fresh bacterial suspensions (200 μl) in 0.1M carbonate buffer, pH 8.6, were incubated with the test sensitizer and/or inhibitor at the indicated concentrations for 1 hour in the dark. (ii) Wash: Unbound sensitizer was removed by washing and resuspension in the same buffer (x3). (iii) Illumination: The bacterial suspensions were exposed to light (140 mW/cm^2, λ>550 nm) for 5 min. (iv) Assessment of survival: Samples of the bacterial suspensions (30 μl) were cultured in 2 ml of BHI liquid media at 37° C. (shaking) for 2 hr. Bacterial density was monitored by turbidity measurements at λ=660 nm, taking OD660=1 for 5×10^7 bacteria/ml. Each experiment consisted of one experimental and three control groups:
Experimental group: Bacteria were subjected to complete treatment (varying one experimental factor). Light control: irradiated bacteria, not treated with sensitizer. Dark control: non-irradiated bacteria, treated with sensitizer in the dark. Untreated control: values used for calculation of 100% survival.

The conditions of series [2]: in vivo; cited from earlier work.
The conditions of series [3]: cited from earlier work.
Another series concerns MR2 melanoma tumors. Nature of the series: Photodynamic treatment of melanoma tumor implanted in CD1 nude mouse, MRI follow up. Type of series: in vivo. As for the experimental part: (a) Tumor implantation: M2R cells are routinely maintained as monolayers. The cells are scraped with the aid of a rubber policeman and suspended in normal saline, 1×10^6 cells/0.1 ml are injected subcutaneously on the flank or batch of C57Bl or CD1 nude male mice. […] A similar procedure is used in nude mice in which either mouse M2R or human (FO/1, MRI/H/221, HS695T amelanotic melanoma or SK/MEL/28) melanoma tumors are implanted.

Entries after “also recorded” stand apart in the source; their conditions may differ.

For the compound `CC[C@H]1c2cc3[n-]c4c(c3C)C(=O)[C@H](C(=O)OC)c4c3nc(cc4[n-]c(cc(n2)[C@@H]1C)c(C(C)=O)c4C)[C@@H](C)[C@@H]3CCC(=O)OC[C@H](N)C(=O)OC.[Mg+2]` [Bchla-L-Ser-OMe, L-seryl Methyl Ester Bacteriochlorophyllide a], the “effect on behavior and well being of mice” value with C57Bl mice is “no noticeable effect on the behavior and well being of the mice”. Also, the “LD50 (phototoxicity in cell cultures)” value with cell cultures was 50 nM. For the same compound, the “concentration of maximal phototoxicity” value in series [1] came out at 0.5 µM. The “phototoxicity LD50” value in series [1] (as described in Example 17) came to 70 nM. Also, the dark toxicity result in series [1] (no light, up to highest tested concentration (10 μM)) is listed as “no detectable dark toxicity”. Also, in series [2], the “clearance from the animal body” value was 16 h. Moreover, in series [3], the water solubility entry is “water soluble”. Further, the “tumor by MRI after first treatment” value with MR2 melanoma tumors (50-150 μg into and around tumor, halogen light 60 min, 84 h later) is “essentially eliminated”. Also, the “tumor recurrence by MRI after second treatment” value with MR2 melanoma tumors (after a second treatment (2-3 weeks later)) is reported as “no recurrence”. Moreover, in the series on MR2 melanoma tumors (two weeks after first treatment), the “tumor recurrence by MRI after first treatment” value is recorded as “small recurrence; also recorded: some recurrence”.
